Columns and labels:
TPα = molecular target: T1, TPα (Homo sapiens, UniProt P21731); assay: U46619-induced [Ca2+]i mobilization in HEK.TPα cells; format: cell-based; settings: 1 μM U46619, % of agonist-induced response in vehicle-treated cells; for remaining activity at 1 µM: antagonist 1 μM, read-out: Percentage of Control, TPα, 1 μM; for remaining activity at 10 µM: antagonist 10 μM, read-out: Percentage of Control, TPα, 10 μM
T1 construct: expressed in transfected cells
T1 sequence (P21731 1-343): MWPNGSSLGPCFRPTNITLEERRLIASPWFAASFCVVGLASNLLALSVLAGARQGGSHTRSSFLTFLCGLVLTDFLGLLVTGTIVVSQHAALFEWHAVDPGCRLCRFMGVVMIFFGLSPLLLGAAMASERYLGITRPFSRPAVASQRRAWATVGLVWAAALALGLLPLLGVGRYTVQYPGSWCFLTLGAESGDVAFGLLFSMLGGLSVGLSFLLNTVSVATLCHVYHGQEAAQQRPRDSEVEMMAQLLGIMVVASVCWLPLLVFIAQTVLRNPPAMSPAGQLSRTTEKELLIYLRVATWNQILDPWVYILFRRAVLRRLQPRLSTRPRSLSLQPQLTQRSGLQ
Excerpt: (§1) An appropriate functional test for the evaluation of the agonistic and/or antagonistic potency of the compounds of the invention is the determination of calcium flux. Both TPα and TPβ are coupled to the G-protein Gαq. Therefore, stimulation of these receptors ultimately leads to a release of intracellular calcium ([Ca^2+]i) from intracellular stores. Consequently, the determination of [Ca^2+]i flux represents an appropriate functional test for the evaluation of the agonistic/antagonistic potency of compounds of the invention. Calcium can be measured using a molecule characterized by the covalent combination of a Ca^2+ chelating group and a fluorophore group. The Ca^2+ binding properties of these indicators are formed by the presence of a tetracarboxylic acid core as found for example in EGTA (Ethylene Glycol bis(2-aminoethyl)Tetraacetic Acid). Binding of Ca^2+ produces a wavelength shift in either the excitation or emission fluorescence spectra or a change in the emission intensity. Whereas the Ca^2+ binding to EGTA is pH dependent, recent dyes are designed from an EGTA derivative, BAPTA (1,2-Bis(2-Aminophenoxy)ethane-N,N,N′,N′-Tetraacetic Acid). Loading of these dyes inside cells commonly uses esterified forms (acetoxymethyl ester), which are able to cross the cell membranes and are subsequently hydrolyzed by esterases inside the cell.
(§2) Estimation of [Ca^2+]i flux is calculated from the fluorescence signal (F). For calibration, the maximal fluorescence (Fmax, Ca^2+-saturated form of the dye) as well as minimal fluorescence (Fmin, Ca^2+-free form of the dye) must be determined. These parameters are determined usually in situ after the experiment, for example by subsequent addition to the mixture of a cell-disrupting agent that releases all Ca^2+ such as Triton X100 and a potent Ca^2+-chelating agent such as EGTA. After subtraction of background fluorescence, [Ca^2+]; flux can be calculated for non-ratiometric indicators.
(§3) Intracellular [Ca^2+]; fluxes were measured using a fluorescence plate reader following a modified protocol of Kassack et al., ‘Quantitative comparison of functional screening by measuring intracellular Ca^2+ with radioligand binding at recombinant human dopamine receptors’, AAPS Pharmsci, 2002, 4(4); 102-111, in cell lines (e.g. HEK293 or other cell type) endogenously-expressing or over-expressing either TPα, TPβ or any other receptor or protein to be screened.
(§4) By way of example, HEK 293 cells which have been grown for 3-4 days in normal growth media (minimum essential media containing 10% FBS and 2 mmol/1 L-glutamine), under normal growth conditions (37° C., in humidified 5% CO2 atmosphere) are washed and harvested in KREBs-HEPES buffer (118 mM NaCl, 4.7 mM KCl, 1.2 mM MgSO4, 1.2 mM KH2PO4, 4.2 mM NaHCO3, 11.7 mM D-glucose, 1.3 mM CaCl2, 10 mM HEPES, pH 7.4). Cells are then incubated with 3 μM Fluo-4 in KREBs-HEPES buffer containing 1% Pluoronic F-127, for 1 hr at 25° C. with agitation. Then, cells are washed in KREBs-HEPES buffer containing 0.5% BSA and re-suspended at a final concentration of 3×10^5 cells/ml. Approx. 5.4×10^4 cells per well are plated in a 96-well plate and pre-incubated with test compounds for 10 m prior to measuring the fluorescence intensity at 520 nm for 25 seconds at 1 s intervals to monitor baseline using the Fluoroskan Ascent. Agonist (e.g., 1 μM U46619) is injected into separate wells by the automatic pipettor and fluorescence intensity is monitored at 520 nm for 75 seconds at 1 s intervals. Thereafter, Triton X100 and EGTA are added sequentially where Fmax refers to maximal fluorescence intensity measured after permeabilization of the cells with 2% Triton X100 and Fmin refers to fluorescence intensity measured after addition of 1 mM EGTA.
(§5) The dye Fluo-4 has its excitation peak at 480 nm, in the visible spectra, which spare cells to be damaged by UV (340-360 nm) stimulation and reduces auto-fluorescence of cells. […]

TPβ = molecular target: T2, TPβ (Homo sapiens, UniProt P21731); assay: U46619-induced [Ca2+]i mobilization in HEK.TPβ cells; format: cell-based; settings: 1 μM U46619, % of agonist-induced response in vehicle-treated cells; for remaining activity at 1 µM: antagonist 1 μM, read-out: Percentage of Control, TPβ, 1 μM; for remaining activity at 10 µM: antagonist 10 μM, read-out: Percentage of Control, TPβ, 10 μM
T2 construct: expressed in transfected cells
Excerpt: as §1, §2, §3, §4, §5

T2 sequence (P21731 1-407 isoform P21731-2): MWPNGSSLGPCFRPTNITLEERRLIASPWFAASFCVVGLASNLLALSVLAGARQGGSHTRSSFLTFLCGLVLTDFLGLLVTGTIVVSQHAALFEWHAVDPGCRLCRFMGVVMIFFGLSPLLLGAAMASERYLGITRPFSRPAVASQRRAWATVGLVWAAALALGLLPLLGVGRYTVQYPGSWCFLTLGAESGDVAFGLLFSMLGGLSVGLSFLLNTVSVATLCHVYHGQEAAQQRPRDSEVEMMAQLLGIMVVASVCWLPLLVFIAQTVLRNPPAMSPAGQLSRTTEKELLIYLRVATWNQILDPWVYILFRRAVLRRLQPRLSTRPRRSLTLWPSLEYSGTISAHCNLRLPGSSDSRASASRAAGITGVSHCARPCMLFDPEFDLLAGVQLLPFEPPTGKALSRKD

SMILES	remaining activity at 1 µM (TPα) [%]	remaining activity at 10 µM (TPα) [%]	remaining activity at 1 µM (TPβ) [%]	remaining activity at 10 µM (TPβ) [%]
COc1ccc(-c2cccc(Oc3ccc(C(=O)NCc4ccccn4)cc3S(=O)(=O)NC(=O)NC(C)(C)C)c2)cc1 [NTP11]	73.1 ± 5.28	75.4 ± 5.83	49.8 ± 1.86	20.7 ± 2.81
COc1ccc(-c2cccc(Oc3ccc(C(=O)NC4COC4)cc3S(=O)(=O)NC(=O)NC(C)(C)C)c2)cc1 [NTP12]	99.7 ± 2.13	77.9 ± 2.69	84.2 ± 7.51	34.4 ± 2.85
COc1ccc(-c2cccc(Oc3ccc(C(N)=O)cc3S(=O)(=O)NC(=O)NC(C)(C)C)c2)cc1 [NTP13]	93.8 ± 13.9	95.2 ± 9.57	74 ± 3.66	36.2 ± 0.52
COc1ccc(-c2cccc(Oc3ccc(C(=O)N4CCC4)cc3S(=O)(=O)NC(=O)NC(C)(C)C)c2)cc1 [NTP17]	83.1 ± 4.85	59.5 ± 4.07	51.1 ± 1.13	13.3 ± 5.91
COc1ccc(-c2cccc(Oc3ccc(-c4cn[nH]c4)cc3S(=O)(=O)NC(=O)NC(C)(C)C)c2)cc1 [NTP18]	93.4 ± 6.17	73.6 ± 2.98	45 ± 4.34	22.6 ± 2.28
COc1ccc(-c2cccc(Oc3ccc(-c4c(C)noc4C)cc3S(=O)(=O)NC(=O)NC(C)(C)C)c2)cc1 [NTP19]	97.6 ± 8.6	99.4 ± 16	77.7 ± 3.24	64.5 ± 4.65

The remaining lines, values ahead:

remaining activity at 1 µM (TPα) [%]	remaining activity at 10 µM (TPα) [%]	remaining activity at 1 µM (TPβ) [%]	remaining activity at 10 µM (TPβ) [%]	SMILES
95.5 ± 4.25	69.8 ± 1.73	96 ± 0.94	54.7 ± 8.1	CNC(=O)c1ccc(Oc2cccc(-c3ccc(OC)cc3)c2)c(S(=O)(=O)NC(=O)NC(C)(C)C)c1 [NTP10]
83.5 ± 9.26	89.1 ± 9.1	86.4 ± 7.06	59.4 ± 7.67	COCCNC(=O)c1ccc(Oc2cccc(-c3ccc(OC)cc3)c2)c(S(=O)(=O)NC(=O)NC(C)(C)C)c1 [NTP14]
79.8 ± 8.81	52.6 ± 8.42	87.6 ± 8.28	86.1 ± 5.64	COc1ccc(-c2cccc(Oc3ccc(C(=O)NCCN(C)C)cc3S(=O)(=O)NC(=O)NC(C)(C)C)c2)cc1 [NTP15]
117 ± 10.2	96.3 ± 1.24	83 ± 7.62	34 ± 3.88	COc1ccc(-c2cccc(Oc3ccc(C(=O)NCC4CC4)cc3S(=O)(=O)NC(=O)NC(C)(C)C)c2)cc1 [NTP16]

Reference: patent US9718781B2, “Methods and compounds for treating proliferative disorders and viral infections” (University College Dublin, National University of Ireland, …, priority 2012, dated 2017)
